Assay results taken from US9849130B2 (KamTek, Inc., priority 2014, dated 2017).
Converted amounts (≈) assume the structure as drawn.

Columns and labels:
[1] = system: Clostridium difficile (CD) strains; assay: microbe, parasite or virus in culture; assay type: cell-based
[2] = system: C. perfringens MH310; assay: microbe, parasite or virus in culture; assay type: cell-based; settings: C. perfringens MH310
[3] = system: Enterococcus faecalis; assay: MIC by microdilution in Mueller-Hinton broth against Enterococcus faecalis strains; assay type: cell-based
[4] = system: Enterococci faecium; assay: MIC by microdilution in Mueller-Hinton broth against Enterococci faecium strains; assay type: cell-based, Enterococcus faecium; settings: Mueller-Hinton broth
[5] = system: Staphylococcus aureus strains; assay: MIC by microdilution in Mueller-Hinton broth against Staphylococcus aureus strains; assay type: cell-based
[6] = system: Bacteroides Strains; assay: MIC by microdilution in Brucella broth against Bacteroides strains; assay type: cell-based, Bacteroides spp.
[7] = system: Fusobacterium; assay: MIC by microdilution in Brucella broth against Fusobacterium; assay type: cell-based, Fusobacterium spp.; settings: Brucella broth
[8] = system: Bifidobacterium strains; assay: MIC by microdilution in BHI broth against Bifidobacterium strains; assay type: cell-based, Bifidobacterium spp.; settings: BHI broth
[9] = system: Lactobacillus strains; assay: MIC against Lactobacillus strains; assay type: cell-based, Lactobacillus spp.; settings: broth microdilution, BHI with 0.02% Tween 80, pH 6.0
[10] = system: Lachnospiraceae and related bacterial strains; assay: MIC against Lachnospiraceae and related bacterial strains; assay type: cell-based, Lachnospiraceae spp.; settings: broth microdilution, brucella broth

SMILES: CCN=c1cc2n(-c3cccc(C(F)(F)F)c3)c3ccccc3nc-2cc1Nc1cccc(C(F)(F)F)c1 [B4129]
- antibacterial activity against CD, fold greater than MET [1]: 32 fold
- antibacterial activity against CD, fold greater than VAN [1]: 16 fold
- MIC ([1]; CD strain BAA1805 (hyper-virulent strain BI/NAP1/027), BB): 0.062 mg/L (≈ 0.118 µM)
- MIC50 ([1]; n = 37): ≦0.031 μg/ml
- MIC90 ([1]; n = 37): 0.125 mg/L (≈ 0.237 µM)
- MIC Range ([1]; n = 37): ≦0.031-0.25 μg/ml
- MIC ([2]; BB): 0.25 mg/L (≈ 0.475 µM)
- MIC ([2]; BHI): 2 mg/L (≈ 3.8 µM)
- MIC ([3]; E. faecalis NR 31884): >32 mg/L
- MIC ([3]; E. faecalis NR 31885): >32 mg/L
- MIC ([3]; E. faecalis NR 31886): >32 mg/L
- MIC ([3]; E. faecalis NR 31887): >32 mg/L
- MIC ([3]; E. faecalis NR 31888): >32 mg/L
- MIC ([4]; E. faecium NR 31903): >32 mg/L
- MIC ([4]; E. faecium NR 31909): >32 mg/L
- MIC ([4]; E. faecium NR 31912): >32 mg/L
- MIC ([4]; E. faecium NR 31915): >32 mg/L
- MIC ([4]; E. faecium NR 31916): >32 mg/L
- MIC ([5]; Staphylococcus aureus strain NR 10129): 32 mg/L (≈ 60.8 µM)
- MIC ([5]; Staphylococcus aureus strain NR 10186): >32 mg/L
- MIC ([5]; Staphylococcus aureus strain NR 10187): >32 mg/L
- MIC ([5]; Staphylococcus aureus strain NR 10188): >32 mg/L
- MIC ([5]; Staphylococcus aureus strain NR 10189): >32 mg/L
- MIC ([5]; Staphylococcus aureus strain NR 10191): >32 mg/L
- MIC ([5]; Staphylococcus aureus strain NR 10192): >32 mg/L
- MIC ([5]; Staphylococcus aureus strain NR 10193): >32 mg/L
- MIC ([5]; Staphylococcus aureus strain NR 10194): 32 mg/L (≈ 60.8 µM)
- MIC ([5]; Staphylococcus aureus strain NR 10198): >32 mg/L
- MIC ([6]; B. caccae HM728): 2 mg/L (≈ 3.8 µM)
- MIC ([6]; B. eggerthii HM210): 2 mg/L (≈ 3.8 µM)
- MIC ([6]; B. fragilis HM709): 2 mg/L (≈ 3.8 µM)
- MIC ([6]; B. fragilis HM710): 2 mg/L (≈ 3.8 µM)
- MIC ([6]; B. fragilis HM714): 4 mg/L (≈ 7.6 µM)
- MIC ([6]; B. ovatus HM222): 0.25 mg/L (≈ 0.475 µM)
- MIC ([6]; B. spp. HM18): 16 mg/L (≈ 30.4 µM)
- MIC ([6]; B. spp. HM19): 0.5 mg/L (≈ 0.95 µM)
- MIC ([6]; B. spp. HM20): 2 mg/L (≈ 3.8 µM)
- MIC ([6]; B. spp. HM22): 2 mg/L (≈ 3.8 µM)
- MIC ([6]; B. spp. HM23): 16 mg/L (≈ 30.4 µM)
- MIC ([6]; B. spp. HM27): 1 mg/L (≈ 1.9 µM)
- MIC ([6]; B. spp. HM28): 2 mg/L (≈ 3.8 µM)
- MIC ([6]; B. spp. HM58): 2 mg/L (≈ 3.8 µM)
- MIC ([6]; B. stercoris HM1036): 0.25 mg/L (≈ 0.475 µM)
- MIC ([7]; F. nucleatum HM-75): >32 mg/L
- MIC ([7]; F. nucleatum HM-260): >32 mg/L
- MIC ([7]; F. nucleatum HM-992): >32 mg/L
- MIC ([7]; F. nucleatum HM-993): 8 mg/L (≈ 15.2 µM)
- MIC ([7]; F. nucleatum HM-994): >32 mg/L
- MIC ([7]; F. nucleatum HM-995): >32 mg/L
- MIC ([7]; F. nucleatum HM-996): >32 mg/L
- MIC ([7]; F. nucleatum HM-997): >32 mg/L
- MIC ([7]; Fusobacterium sp. HM 42): >32 mg/L
- MIC ([7]; Fusobacterium sp. HM 57): >32 mg/L
- MIC ([7]; Fusobacterium sp. HM-556): >32 mg/L
- MIC ([7]; Fusobacterium sp. HM-758): >32 mg/L
- MIC ([7]; Fusobacterium sp. HM-871): >32 mg/L
- MIC ([7]; Fusobacterium sp. HM-874): >32 mg/L
- MIC ([7]; Fusobacterium sp. HM-875): >32 mg/L
- MIC ([8]; Bifidobacterium adolescentis HM-633): >32 mg/L
- MIC ([8]; Bifidobacterium breve HM-411): >32 mg/L
- MIC ([8]; Bifidobacterium breve HM-412): 0.25 mg/L (≈ 0.475 µM)
- MIC ([8]; Bifidobacterium breve HM-856): >32 mg/L
- MIC ([8]; Bifidobacterium breve HM-1120): >32 mg/L
- MIC ([8]; Bifidobacterium longum HM-845): ≦0.031 μg/ml
- MIC ([8]; Bifidobacterium longum HM-846): 0.25 mg/L (≈ 0.475 µM)
- MIC ([8]; Bifidobacterium longum HM-847): 2 mg/L (≈ 3.8 µM)
- MIC ([8]; Bifidobacterium sp. HM-30): 4 mg/L (≈ 7.6 µM)
- MIC ([8]; Bifidobacterium sp. HM-868): >32 mg/L
- MIC ([9]; Lactobacillus crispatus HM-637): 16 mg/L (≈ 30.4 µM)
- MIC ([9]; Lactobacillus gasseri HM-104): >32 mg/L
- MIC ([9]; Lactobacillus iners HM-126): 1 mg/L (≈ 1.9 µM)
- MIC ([9]; Lactobacillus jensenii HM-105): >32 mg/L
- MIC ([9]; Lactobacillus jhonsonii HM-643): >32 mg/L
- MIC ([9]; Lactobacillus reuteri HM-102): >32 mg/L
- MIC ([9]; Lactobacillus rhamnosus HM-106): >32 mg/L
- MIC ([9]; Lactobacillus sp. HM-228): 1 mg/L (≈ 1.9 µM)
- MIC ([9]; Lactobacillus sp. HM-478): >32 mg/L
- MIC ([9]; Lactobacillus vaginalis HM-405): 2 mg/L (≈ 3.8 µM)
- MIC ([10]; Clostridiales bacterium HM-84): ≦0.031 μg/ml
- MIC ([10]; Clostridiales bacterium HM-182): 0.125 mg/L (≈ 0.237 µM)
- MIC ([10]; Eubacterium sp. HM-178): 0.125 mg/L (≈ 0.237 µM)
- MIC ([10]; Lachnospiraceae sp. HM-7): ≦0.031 μg/ml
- MIC ([10]; Lachnospiraceae sp. HM-150): 0.125 mg/L (≈ 0.237 µM)
- MIC ([10]; Lachnospiraceae sp. HM-153): 0.125 mg/L (≈ 0.237 µM)
- MIC ([10]; Lachnospiraceae sp. HM-154): 0.125 mg/L (≈ 0.237 µM)
- MIC ([10]; Lachnospiraceae sp. HM-157): 0.25 mg/L (≈ 0.475 µM)
- MIC ([10]; Lachnospiraceae sp. HM-161): 0.125 mg/L (≈ 0.237 µM)
- MIC ([10]; Lachnospiraceae sp. HM-480): 0.062 mg/L (≈ 0.118 µM)
- MIC ([10]; Lachnospiraceae sp. HM-558): 0.125 mg/L (≈ 0.237 µM)
- MIC ([10]; Lachnospiraceae sp. HM-768): ≦0.031 μg/ml
- MIC ([10]; Lachnospiraceae sp. HM-868): >32 mg/L
- MIC ([10]; Peptostreptococcaceae sp. HM-766): 0.5 mg/L (≈ 0.95 µM)
